The text below walks through data of patent publication US20230114728A1 (Venatorx Pharmaceuticals, Inc., priority 2019, published 2023).

Experiment [1] addresses T1, N. gonorrhoeae PBP2 (Neisseria gonorrhoeae, UniProt P08149).
T1 construct: made in house
In words: Bocillin-FL fluorescence polarization competition binding assay, N. gonorrhoeae PBP2. Conditions: fluorescence polarization competition binding assay using Bocillin-FL; read-out: N. gonorrhoeae PBP2 Potency. From the text:
Example I: Experimental Method for Penicillin-Binding Protein Binding Assays with Bocillin-FL Via Fluorescence Polarization
To determine the ability of boronic acid-based test PBP inhibitors to bind Penicillin Binding Proteins (PBPs), Bocillin-FL (fluorescently-labeled penicillin V; ThermoFisher Scientific) was used in a fluorescence polarization (FP) competition binding assay to assess inhibitor binding to PBP2, PBP3 or PBP4 from Escherichia coli (K12), PBP3 from Pseudomonas aeruginosa (PA01), PBP1a, PBP2 and PBP3 from Acinetobacter baumannii (ATCC 19606), and PBP2 from Neiserria gonorrheae (FA19). PBPs were cloned and purified as described previously (E. coli PBPs, King, D. T, et al., ACS Infectious Diseases 2015, 1, 175-184; P. aeruginosa PBP3, Han et. al., PNAS 2010, 107 (51), 22002-22007; A. baumannii PBPs, Penwell et. al., Antimicrob. Agents Chemother. 2015, 59 (3), 1680-1689; N. gonorrhoeae PBP2, Singh et. al., J Biol. Chem. 2019, 294 (38), 14020-14032). To establish assay conditions for competition binding, enzyme titration/saturation binding experiments were initially performed. Bocillin-FL was prepared at 0.2 μM in a buffer comprised of 50 mM Hepes (pH 8.0), 300 mM NaCl and 5% (v/v) glycerol for reactions with E. coli, P. aeruginosa and N. gonorrhoeae PBPs, and 25 mM Tris (pH 8.0), 200 mM NaCl and 10% (v/v) glycerol and 0.005% (v/v) Tween 20 for reactions with A. baumannii PBPs. Saturation binding was performed by mixing 40 μl of PBP solutions ranging in concentrations from 0-24 μM with 40 μl of the 0.2 μM Bocillin-FL solution, in individual wells of a black 384-well microplate. FP was measured immediately upon mixing (Excitation, 490 nm; Emission, 520 nm; g-factor, 0.96), using a Cytation3 (BioTek) microplate reader and measured continuously for up to 120 minutes. […] The competition binding assay (80 μl final volume) was validated using beta-lactams and PBPs at final concentrations of: 1.5 μM, E. coli PBP3; 0.75 μM, P. aeruginosa PBP3; 1 μM A. baumannii PBP1a; 2.5 μM A. baumannii PBP2; 0.2 μM A. baumannii PBP3; and […] N. gonorrhoeae PBP2. Bocillin-FL was at 0.1 μM (0.05 μM with A. baumannii PBP1a) and beta-lactam concentrations ranged from 0-1000 μM. […] Bocillin-FL was added and the FP immediately measured for up to 60 minutes (90 minutes for E. coli PBP2). […] The beta-lactam potency was reported as the concentration of beta-lactam required to reduce the amount of PBP bound-Bocillin-FL by 50% (EC50). […] Binding assays for boronic acid PBP inhibitors were performed in an identical fashion for the respective PBPs

Experiment [2] concerns N. gonorrhoeae FA1090. In words: Liquid broth MIC in Fastidious broth. Conditions: Neisseria gonorrhoeae; N. gonorrhoeae strain FA1090; Fastidious broth; read-out: Minimum Inhibitory Concentration, N. gonorrhoeae FA1090. Format: cell-based. The method in brief: (§1)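 Colonies were swabbed from chocolate agar after 24 h growth and standardised by optical density at 600 nm. Compounds were serially diluted twofold in Fastidious broth, and bacteria added to give 5×10^5 CFU/mL. After about 24 h at 36 °C in 5% CO2, the lowest concentration allowing under 10% growth was taken as MIC.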

Experiment [3] deals with N. gonorrhoeae ATCC 49226. In words: Liquid broth MIC in Fastidious broth. Format: cell-based. Conditions: Neisseria gonorrhoeae, ATCC49226; N. gonorrhoeae strain ATCC 49226; Fastidious broth; read-out: Minimum Inhibitory Concentration, N. gonorrhoeae ATCC 49226. The method in brief:
as §1

The subject of experiment [4] is N. gonorrhoeae WHO Z. In words: Liquid broth MIC in Fastidious broth. Type of experiment: cell-based. Conditions: Neisseria gonorrhoeae, read-out: Minimum Inhibitory Concentration, N. gonorrhoeae WHO Z. The method in brief: as §1
Experiment [5] concerns N. gonorrhoeae WHO G. In words: Liquid broth MIC in Fastidious broth. Format: cell-based. Conditions: Neisseria gonorrhoeae; N. gonorrhoeae strain WHO G; Fastidious broth; read-out: Minimum Inhibitory Concentration, N. gonorrhoeae WHO G. The method in brief: as §1
The test system of experiment [6] is N. gonorrhoeae WHO Q. In words: Liquid broth MIC in Fastidious broth. Format: cell-based. Conditions: Neisseria gonorrhoeae, read-out: Minimum Inhibitory Concentration, N. gonorrhoeae WHO Q. The method in brief: as §1
In experiment [7] the test system is N. gonorrhoeae H041. In words: Liquid broth MIC in Fastidious broth. Type of experiment: cell-based. Conditions: Neisseria gonorrhoeae, H041, read-out: Minimum Inhibitory Concentration, N. gonorrhoeae H041. The method in brief:
as §1

For experiment [8], the system named is N. gonorrhoeae WHO K. In words: Liquid broth MIC in Fastidious broth. Format: cell-based. Conditions: Neisseria gonorrhoeae, read-out: Minimum Inhibitory Concentration, N. gonorrhoeae WHO K. The method in brief:
as §1

Experiment [9] has as its target T2, E. coli K12 PBP3 (Escherichia coli, UniProt P0AD68).
T2 construct: made in house
In words: biochemical. Type of experiment: binding. The method in brief:
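A. baumannii PBP2 (2.5 μM) and PBP3 (0.2 μM) were run in 25 mM Tris pH 8.0 buffer with Tween 20; E. coli PBP3 (1.5 μM) and N. gonorrhoeae PBP2 ([…]) in 50 mM Hepes pH 8.0 buffer.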

For experiment [10], the target named is T3, P. aeruginosa PBP3 (Pseudomonas aeruginosa, UniProt G3XD46).
T3 construct: made in house
In words: Bocillin-FL fluorescence polarization competition binding assay, P. aeruginosa PBP3. Conditions: fluorescence polarization competition binding assay using Bocillin-FL. The method in brief:
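Inhibitor competition with Bocillin-FL for P. aeruginosa PBP3 was followed by fluorescence polarization on a Cytation3 (BioTek) reader, using g-factor 0.96, 490 nm excitation and 520 nm emission. The enzyme was at 0.75 μM and the probe at 0.1 μM in Hepes/NaCl/glycerol buffer, 80 μl per well. FP was recorded immediately after probe addition for up to 60 minutes. Potency was expressed as EC50, the concentration that reduces bound probe by 50%.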

Values after ≈ are worked out from the molar mass of the structure shown.

T2 sequence (P0AD68 1-577): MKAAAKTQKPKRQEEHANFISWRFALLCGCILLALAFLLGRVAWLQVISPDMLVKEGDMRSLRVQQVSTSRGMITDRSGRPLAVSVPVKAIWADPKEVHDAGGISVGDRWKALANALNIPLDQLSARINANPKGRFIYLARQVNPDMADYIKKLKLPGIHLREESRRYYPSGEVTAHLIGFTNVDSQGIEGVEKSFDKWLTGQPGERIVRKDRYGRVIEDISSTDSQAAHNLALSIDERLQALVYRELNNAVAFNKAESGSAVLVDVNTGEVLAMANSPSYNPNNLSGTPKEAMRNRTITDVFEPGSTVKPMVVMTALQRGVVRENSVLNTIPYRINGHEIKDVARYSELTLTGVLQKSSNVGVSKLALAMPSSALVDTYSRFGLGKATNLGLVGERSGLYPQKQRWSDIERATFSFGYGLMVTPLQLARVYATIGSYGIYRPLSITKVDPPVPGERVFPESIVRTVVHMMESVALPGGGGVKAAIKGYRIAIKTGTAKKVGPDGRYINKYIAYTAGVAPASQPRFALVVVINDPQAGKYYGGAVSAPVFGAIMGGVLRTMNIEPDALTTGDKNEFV
T3 sequence (G3XD46 whole entry): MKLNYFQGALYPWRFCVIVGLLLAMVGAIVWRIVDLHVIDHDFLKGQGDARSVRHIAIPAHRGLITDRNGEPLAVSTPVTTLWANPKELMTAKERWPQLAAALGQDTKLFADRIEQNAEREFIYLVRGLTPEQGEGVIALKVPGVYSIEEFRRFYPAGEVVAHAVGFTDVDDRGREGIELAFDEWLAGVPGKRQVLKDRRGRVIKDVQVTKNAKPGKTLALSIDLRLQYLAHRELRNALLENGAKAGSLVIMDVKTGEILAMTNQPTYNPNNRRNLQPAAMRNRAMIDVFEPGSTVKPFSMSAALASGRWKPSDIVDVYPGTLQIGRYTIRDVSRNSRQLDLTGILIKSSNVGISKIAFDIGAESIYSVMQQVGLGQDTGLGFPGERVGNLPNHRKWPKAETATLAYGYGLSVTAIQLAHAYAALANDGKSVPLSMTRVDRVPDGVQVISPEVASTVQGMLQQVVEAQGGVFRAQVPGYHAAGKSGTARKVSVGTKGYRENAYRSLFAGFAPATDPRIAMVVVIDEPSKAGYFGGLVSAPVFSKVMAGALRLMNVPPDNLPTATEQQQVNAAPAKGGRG
T1 sequence (P08149 whole entry): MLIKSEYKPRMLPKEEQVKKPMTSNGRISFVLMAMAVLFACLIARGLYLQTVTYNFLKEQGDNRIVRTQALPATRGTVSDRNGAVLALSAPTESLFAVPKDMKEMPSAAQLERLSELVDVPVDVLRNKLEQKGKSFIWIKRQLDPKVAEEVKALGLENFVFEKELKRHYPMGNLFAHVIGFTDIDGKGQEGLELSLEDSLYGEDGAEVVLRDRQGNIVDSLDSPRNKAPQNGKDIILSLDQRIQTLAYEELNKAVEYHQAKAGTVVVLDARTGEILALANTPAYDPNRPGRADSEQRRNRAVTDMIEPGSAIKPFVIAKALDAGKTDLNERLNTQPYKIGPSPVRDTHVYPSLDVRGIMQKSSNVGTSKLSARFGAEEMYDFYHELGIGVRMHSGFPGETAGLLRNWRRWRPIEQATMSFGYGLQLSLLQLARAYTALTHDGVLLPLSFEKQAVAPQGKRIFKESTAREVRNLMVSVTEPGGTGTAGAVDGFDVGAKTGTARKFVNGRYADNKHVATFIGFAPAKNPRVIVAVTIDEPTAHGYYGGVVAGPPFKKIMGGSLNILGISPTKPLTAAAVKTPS

For the compound `CCN1CCN(C(=O)N[C@H](C(=O)N[C@H]2Cc3cccc(C(=O)O)c3OB2O)c2ccc(C(=O)O)cc2)C(=O)C1=O` (single isomer, unassigned) [Example 123], the EC50 is less than 10 µM in [1] and less than 30 µM in [9]. Also, the MIC in experiment [2] fell in the range of 0.25 to 0.5 µg/mL (≈ 0.453 to 0.905 µM); in [3], 4 to 8 µg/mL (≈ 7.24 to 14.5 µM); in experiment [4], 1 to 2 µg/mL (≈ 1.81 to 3.62 µM); in experiment [5], 1 to 2 µg/mL (≈ 1.81 to 3.62 µM); in experiment [6], 4 to 8 µg/mL (≈ 7.24 to 14.5 µM); in experiment [7], 16 to 32 µg/mL (≈ 29 to 57.9 µM). The MIC in [8] lay within 4 to 8 µg/mL (≈ 7.24 to 14.5 µM). Moreover, the “P. aeruginosa PBP3 Potency” value in experiment [10] was “D (D represents a potency <10 μM)”.
Regarding `CCN1CCN(C(=O)N[C@@H](C(=O)N[C@H]2Cc3cccc(C(=O)O)c3OB2O)c2ccc(C(=O)O)cc2)C(=O)C1=O` (single isomer, unassigned) [Example 124], the EC50 in [1] was less than 10 µM; in [9] it was less than 30 µM. Further, the MIC in experiment [2] was less than 0.125 µg/mL; in [3], 1 to 2 µg/mL (≈ 1.81 to 3.62 µM); in experiment [4], 1 to 2 µg/mL (≈ 1.81 to 3.62 µM); in experiment [5], 0.25 to 0.5 µg/mL (≈ 0.453 to 0.905 µM); in [6], 1 to 2 µg/mL (≈ 1.81 to 3.62 µM); in [7] it was 4 to 8 µg/mL (≈ 7.24 to 14.5 µM). The MIC in [8] lay in the range of 4 to 8 µg/mL (≈ 7.24 to 14.5 µM). In addition, the “P. aeruginosa PBP3 Potency” value in experiment [10] is on record as “D (D represents a potency <10 μM)”.
`CCN1CCN(C(=O)N[C@H](C(=O)N[C@H]2Cc3cccc(C(=O)O)c3OB2O)c2ccc(C(=O)O)c(F)c2F)C(=O)C1=O` (single isomer, unassigned) [Example 139]: the results for the EC50 in experiment [1] and in [9] were less than 10 µM and less than 30 µM, respectively. Further, the MIC was less than 0.125 µg/mL in [2]; 1 to 2 µg/mL (≈ 1.7 to 3.4 µM) in experiment [3]; 1 to 2 µg/mL (≈ 1.7 to 3.4 µM) in [4]; 1 to 2 µg/mL (≈ 1.7 to 3.4 µM) in experiment [5]; 4 to 8 µg/mL (≈ 6.8 to 13.6 µM) in [6]; 4 to 8 µg/mL (≈ 6.8 to 13.6 µM) in [7]. For the same compound, in [8], the MIC was 4 to 8 µg/mL (≈ 6.8 to 13.6 µM). In experiment [10], the “P. aeruginosa PBP3 Potency” value is “D (D represents a potency <10 μM)”.
As to `CCN1CCN(C(=O)N[C@@H](C(=O)N[C@H]2Cc3cccc(C(=O)O)c3OB2O)c2ccc(C(=O)O)c(F)c2F)C(=O)C1=O` (single isomer, unassigned) [Example 140], the EC50 was less than 10 µM in [1] and less than 30 µM in [9]. Further, the MIC in experiment [2] was less than 0.125 µg/mL; in experiment [3], 0.25 to 0.5 µg/mL (≈ 0.425 to 0.85 µM); in experiment [4], 0.25 to 0.5 µg/mL (≈ 0.425 to 0.85 µM); in [5], 0.25 to 0.5 µg/mL (≈ 0.425 to 0.85 µM); in experiment [6], 1 to 2 µg/mL (≈ 1.7 to 3.4 µM); in experiment [7], 1 to 2 µg/mL (≈ 1.7 to 3.4 µM). For the same compound, the MIC in experiment [8] fell in the range of 1 to 2 µg/mL (≈ 1.7 to 3.4 µM). For the same compound, the “P. aeruginosa PBP3 Potency” value in experiment [10] was “D (D represents a potency <10 μM)”.
